This note sets out measurements from patent publication US12668584B2, “Heterocyclic compounds as kinase inhibitors for therapeutic uses” (National Health Research Institutes, priority 2019, dated 2026).

Assay [1] has as its system BaF3-CSF1R-1600 cells (express ETV6-CSF1R fusion protein). Description: MTS cell viability assay, BaF3-CSF1R-1600. Type of assay: cell-based. Conditions: 72 h, read-out: Cellular Proliferation Assay BaF3-CSF1R GI50. How it is done:
(§1) Studies were conducted to evaluate […] anticancer activity of certain compounds described in EXAMPLE 1 using 3-(4,5-dimethylthiazol-2-yl)-5-(3-carboxymethoxyphenyl)-2-(4-sulfophenyl)-2H-tetrazolium) (MTS) cell viability assays. Results from these studies are shown in Table 2 below (see columns 3 and 4).
(§2) The cell lines M-NFS-60 (ATCC® CRL-1838™) and BaF3-CSF1R-1600 were obtained from American Type Culture Collection (ATCC, Manassas, VA, USA). The stable BaF3-CSF1R-1600 cell line expresses ETV6-CSF1R fusion protein consisting of N-terminal ETS-variant gene 6 protein (ETV6 residues M1-G337) and CSF1R tyrosine kinase (CSF1R residues L533-C972). The M-NSF-60 and BaF3-CSF1R-1600 cells were cultured in RPMI1640 medium supplemented with 10% fetal bovine serum, 0.05 mM 2-ME, 10 U/ml penicillin, and 10 µg/ml streptomycin at 37° C. and 5% CO2.
(§3) M-NFS-60 and BaF3-CSF1R-1600 cells were seeded in 96-well plates at a density of 10000 cells/100 μl and 8000 cells/100 μl per well, respectively, for 16 h and treated with vehicle or various concentrations of test compounds in medium for 72 h. Viable cells were quantified using the MTS method (Promega, Madison, WI, USA) according to manufacturer's recommended protocol. The results were determined by measuring absorbance at 490 nm using a plate reader (Victor 2). The GI50 value was defined as the amount of compound that caused 50% reduction in cell viability in comparison with DMSO-treated (vehicle) control and was calculated using Prism GraphPad Prism version 6 software (GraphPad).

Assay [2] addresses T1, CSF1R kinase (recombinant N-terminal GST-CSF1R, residues L534-C972) (Homo sapiens, UniProt P07333).
T1 construct: Recombinant N-terminal GST-CSF1R (CSF1R residues L534-C972) containing the CSFIR kinase domain; made in house; host or cells: Sf9 insect cells
T1 sequence (P07333 534-972): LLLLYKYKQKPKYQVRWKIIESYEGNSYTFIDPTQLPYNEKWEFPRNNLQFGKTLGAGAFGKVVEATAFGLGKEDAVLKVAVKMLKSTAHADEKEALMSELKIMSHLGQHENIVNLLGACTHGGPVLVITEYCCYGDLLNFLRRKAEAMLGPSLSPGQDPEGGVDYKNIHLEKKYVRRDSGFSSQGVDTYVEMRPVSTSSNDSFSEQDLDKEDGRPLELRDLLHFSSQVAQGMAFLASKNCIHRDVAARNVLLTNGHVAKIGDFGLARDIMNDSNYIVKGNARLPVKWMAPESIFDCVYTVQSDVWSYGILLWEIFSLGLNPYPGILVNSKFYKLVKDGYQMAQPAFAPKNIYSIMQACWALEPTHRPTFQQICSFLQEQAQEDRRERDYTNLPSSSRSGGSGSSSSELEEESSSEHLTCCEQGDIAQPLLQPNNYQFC
Description: CSF1R Kinase-Glo assay. Type of assay: biochemical. Conditions: 40 μM ATP, 30° C. 180 min, read-out: Enzymatic Assay CSF1R enzyme IC50. On the procedure: A study was conducted to test certain compounds described in EXAMPLE 1 in inhibiting CSF1R kinase activity.
Activity of CSF1R kinase was determined using a CSF1R Kinase-Glo assay. Recombinant N-terminal GST-CSF1R (CSF1R residues L534-C972) containing the CSFIR kinase domain was expressed in Sf9 insect cells and purified. The kinase assay was carried out in 96-well plates at 30° C. for 180 min with the tested compounds in a final volume of 50 μl including the following components: 25 mM Tris-HCl pH 7.4, 4 mM MnCl2, 10 mM MgCl2, 0.01% BSA, 0.5 mM NA3VO4, 0.02% Triton X-100, 40 μM ATP, 2 mM DTT and 20 μM poly(Glu,Tyr) 4:1 peptide, and 600 ng recombinant GST-CSF1R. Following incubation, 50 μl Kinase-Glo Plus Reagent (Promega, Madison, WI, USA) was added and the mixture was incubated at 25° C. for 20 min. A 70-μL aliquot of each reaction mixture was transferred to a black microtiter plate and luminescence was measured on Wallac Vector 1420 multilabel counter (PerkinElmer, Shelton, CT, USA). Percentage inhibition values were obtained by comparison of reaction rate with the rates in control wells (i.e., in the absence of test compound). IC50 values were calculated from a series of percentage inhibition values determined at a range of test compound concentrations using GraphPad Prism version 6 software (GraphPad, San Diego, CA, USA).

Another assay concerns M-NFS-60 cells. Description: MTS cell viability assay, M-NFS-60. Conditions: 72 h, read-out: Cellular Proliferation Assay M-NFS-60 (nM) GI50. It is filed as cell-based. On the procedure: as §1, §2, §3

`COc1ccc(NC(=O)Nc2ccc(Oc3ncnc4cc(N(C)C)ccc34)cc2)cc1Cl` [Compound 105]: the GI50 lay within 0.02 to 0.1 µM in assay [1] and 20 to 100 nM in the assay with M-NFS-60 cells. Further, the IC50 in assay [2] was 0.02 to 0.1 µM.
On to `CN(C)c1ccc2c(Oc3ccc(NC(=O)NCc4ccco4)cc3)ncnc2c1` [Compound 63], for which the GI50 in assay [1] fell in the range of 0.1 to 1 µM; with M-NFS-60 cells it was 100 to 1000 nM. The IC50 in assay [2] lay in the range of 0.02 to 0.1 µM.
Regarding `CN(C)c1ccc2c(Oc3ccc(NC(=O)Nc4ccccc4F)cc3)ncnc2c1` [Compound 14], the results for the GI50 (in assay [1]; in the assay with M-NFS-60 cells) were less than 0.02 µM and 100 to 1000 nM, respectively. The concentration for half-maximal inhibition (IC50) in assay [2] is less than 0.02 µM.
`CN(C)C1CCN(c2ccc3c(Oc4ccc(NC(=O)Nc5ccccc5)cc4)ncnc3c2)CC1` [Compound 11]: the GI50 in assay [1] was in the range of 0.02 to 0.1 µM; in the assay on M-NFS-60 cells, 20 to 100 nM. Also, the IC50 in assay [2] lay within 0.02 to 0.1 µM.
As to `CN(CCO)c1ccc2c(Oc3ccc(NC(=O)NCc4ccc(C(F)(F)F)nc4)cc3)ncnc2c1` [Compound 40], the results for the GI50 (in assay [1]; in the assay on M-NFS-60 cells) were 0.02 to 0.1 µM and 100 to 1000 nM, respectively. Besides, in assay [2], the half-maximal inhibitory concentration (IC50) fell in the range of 0.02 to 0.1 µM.
For `CN(CCCN1CCOCC1)c1ccc2c(Oc3ccc(NC(=O)NCc4ccc(C(F)(F)F)nc4)cc3)ncnc2c1` [Compound 45], the GI50 in assay [1] is 0.02 to 0.1 µM; in the assay with M-NFS-60 cells, 100 to 1000 nM. In assay [2], the half-maximal inhibitory concentration (IC50) is less than 0.02 µM.
The corresponding values for `O=C(NCc1ccc(C(F)(F)F)nc1)Nc1ccc(Oc2ncnc3cc(F)ccc23)cc1` [Compound 32] are 0.1 to 1 µM, more than 1000 nM and 0.02 to 0.1 µM.
For `CN(C)c1ccc2c(Oc3ccc(NC(=O)NCc4ccc(C(F)(F)F)cc4)cc3)ncnc2c1` [Compound 56] the same measures were 0.02 to 0.1 µM, 100 to 1000 nM and 0.02 to 0.1 µM.
For `COc1ccc(CNC(=O)Nc2ccc(Oc3ncnc4cc(N(C)C)ccc34)cc2)cc1` [Compound 59] the same measures were 0.02 to 0.1 µM, 20 to 100 nM and less than 0.02 µM.
Turning to `C[C@@H]1CN(c2ccc3c(Oc4ccc(NC(=O)NCc5ccc(C(F)(F)F)nc5)cc4)ncnc3c2)C[C@H](C)N1C` [Compound 97], the values for the GI50 (in assay [1]; with M-NFS-60 cells) were 0.02 to 0.1 µM and 20 to 100 nM, respectively. Moreover, in assay [2], the IC50 fell in the range of 0.02 to 0.1 µM.
As to `Cc1ccc(CNC(=O)Nc2ccc(Oc3ncnc4cc(N(C)C)ccc34)cc2)cn1` [Compound 65, 1-(4-((7-(dimethylamino)quinazolin-4-yl)oxy)phenyl)-3-((6-methylpyridin-3-yl)methyl)urea], the GI50 in assay [1] was 0.02 to 0.1 µM; with M-NFS-60 cells, 20 to 100 nM. Besides, the IC50 in assay [2] was less than 0.02 µM.
The corresponding values for `CN(C)c1ccc2c(Oc3ccc(NC(=O)NCc4ccc(C(F)(F)F)nc4)cc3Cl)ncnc2c1` [Compound 25] are 0.1 to 1 µM, more than 1000 nM and 0.02 to 0.1 µM.
The corresponding values for `CN1CCN(c2ccc3c(Oc4ccc(NC(=O)Nc5ccccc5)cc4)ncnc3c2)CC1` [Compound 3] are 0.02 to 0.1 µM, 20 to 100 nM and 0.02 to 0.1 µM.
The corresponding values for `COC[C@H]1CCCN1c1ccc2c(Oc3ccc(NC(=O)Nc4ccccc4)cc3)ncnc2c1` [Compound 10] are 0.1 to 1 µM, 100 to 1000 nM and 0.02 to 0.1 µM.
In the case of `CN(C)c1ccc2c(Oc3ccc(NC(=O)Nc4ccccc4Cl)cc3)ncnc2c1` [Compound 15], the GI50 fell in the range of 0.02 to 0.1 µM in assay [1] and 100 to 1000 nM with M-NFS-60 cells. Further, the IC50 in assay [2] is less than 0.02 µM.
For `CN(C)C1CCN(c2ccc3c(Oc4ccc(NC(=O)NCc5ccc(C(F)(F)F)nc5)cc4)ncnc3c2)CC1` [Compound 23] the same measures were 0.02 to 0.1 µM, 20 to 100 nM and 0.02 to 0.1 µM.
For `COc1ccc(Cl)cc1NC(=O)Nc1ccc(Oc2ncnc3cc(N(C)C)ccc23)cc1` [Compound 104] the same measures were 0.02 to 0.1 µM, 100 to 1000 nM and 0.02 to 0.1 µM.
For `CN(C)c1ccc2c(Oc3ccc(NC(=O)Nc4ccc(Cl)cc4)cc3)ncnc2c1` [Compound 19] the same measures were less than 0.02 µM, 20 to 100 nM and less than 0.02 µM.
As for `C[C@@H]1CN(c2ccc3c(Oc4ccc(NC(=O)NCc5ccc(C(F)(F)F)nc5)cc4)ncnc3c2)C[C@H](C)N1` [Compound 34, 1-(4-((7-(3,5-Dimethylpiperazin-1-yl)quinazolin-4-yl)oxy)phenyl)-3-((6-(trifluoromethyl)pyridin-3-yl)methyl)urea], the GI50 in assay [1] is less than 0.02 µM; in the assay on M-NFS-60 cells it was 100 to 1000 nM. The IC50 in assay [2] was less than 0.02 µM.
On to `O=C(Nc1ccccc1)Nc1ccc(Oc2ncnc3cc(N4CCCC4)ccc23)cc1` [Compound 9], for which the GI50 in assay [1] was in the range of 0.02 to 0.1 µM; in the assay with M-NFS-60 cells it was 20 to 100 nM. Further, in assay [2], the half-maximal inhibitory concentration (IC50) was in the range of 0.02 to 0.1 µM.
With `COc1cc2nccc(Oc3ccc(NC(=O)NCc4ccc(C(F)(F)F)nc4)cc3)c2cc1OC` [Compound 26], the GI50 in assay [1] lay within 0.02 to 0.1 µM; in the assay with M-NFS-60 cells, 100 to 1000 nM. For the same compound, the half-inhibitory concentration (IC50) in assay [2] was 0.02 to 0.1 µM.
As to `CN(C)CCN(C)c1ccc2c(Oc3ccc(NC(=O)NCc4ccc(C(F)(F)F)nc4)cc3)ncnc2c1` [Compound 44], the GI50 in assay [1] lay within 0.02 to 0.1 µM; in the assay with M-NFS-60 cells, 100 to 1000 nM. For the same compound, the IC50 in assay [2] was less than 0.02 µM.
The corresponding values for `CN(C)c1ccc2c(Oc3ccc(NC(=O)Nc4cccc(F)c4)cc3)ncnc2c1` [Compound 18] are 0.02 to 0.1 µM, 100 to 1000 nM and less than 0.02 µM.
As for `COC1CCN(c2ccc3c(Oc4ccc(NC(=O)Nc5ccc(Cl)cc5)cc4)ncnc3c2)CC1` [Compound 20], the GI50 was 0.02 to 0.1 µM in assay [1] and 20 to 100 nM in the assay on M-NFS-60 cells. Besides, the IC50 in assay [2] is less than 0.02 µM.
The corresponding values for `CN(C)c1ccc2c(Oc3ccc4nc(NCc5ccc(C(F)(F)F)nc5)oc4c3)ncnc2c1` [Compound 102] are 0.1 to 1 µM, more than 1000 nM and 0.02 to 0.1 µM.
The corresponding values for `COCCN1CCN(c2ccc3c(Oc4ccc(NC(=O)NCc5ccc(C(F)(F)F)nc5)cc4)ncnc3c2)CC1` [Compound 108] are 0.02 to 0.1 µM, 20 to 100 nM and 0.02 to 0.1 µM.
Regarding `CN(C)c1ccc2c(Oc3ccc(NC(=O)NCc4ccccc4)cc3)ncnc2c1` [Compound 51], the figures for the GI50 (in assay [1]; in the assay on M-NFS-60 cells) were 0.02 to 0.1 µM and 20 to 100 nM, respectively. Besides, the concentration for half-maximal inhibition (IC50) in assay [2] was less than 0.02 µM.
On to `O=C(NCc1ccc(C(F)(F)F)nc1)Nc1ccc(Oc2ncnc3cc(N4CCOCC4)ccc23)cc1` [Compound 99], for which the GI50 lay within 0.02 to 0.1 µM in assay [1] and 20 to 100 nM in the assay with M-NFS-60 cells. Besides, the IC50 in assay [2] is less than 0.02 µM.
The corresponding values for `CN(C)c1ccc2c(Oc3ccc(NC(=O)NCc4ccc(S(N)(=O)=O)cc4)cc3)ncnc2c1` [Compound 49] are 0.1 to 1 µM, more than 1000 nM and less than 0.02 µM.
The corresponding values for `CCN1CCN(c2ccc3c(Oc4ccc(NC(=O)NCc5ccc(C(F)(F)F)nc5)cc4)ncnc3c2)CC1` [Compound 100] are 0.02 to 0.1 µM, 20 to 100 nM and less than 0.02 µM.

One may read the IC50 as the concentration that gives 50% inhibition.
